Experimental data published in US6596715B1, “Protease inhibitors” (SmithKline Beecham Corporation, priority 1999, dated 2003).

Test: Chiral / configurational stability at the carbon alpha to the ketone
Type: physicochemical

configurational stability at the carbon center alpha to the ketone (compared to the corresponding 5 and 6 membered ring compounds): configurationally more stable | chiral stability (compared to the protonated isomer): superior chiral stability
SMILES: [2H]C1(NC(=O)[C@H](CC(C)C)NC(=O)c2ccc3ccccc3n2)CCCN(S(=O)(=O)c2cccc[n+]2[O-])C([2H])([2H])C1=O (stereo partly drawn) [Formula (I), quinoline-2-carboxylic acid {(S)-3-methyl-1-[(2,2,4-trideuterio)-3-oxo-1-(1-oxy-pyridine-2-sulfonyl)-azepan-4-ylcarbamoyl]-butyl}amide]
